Test [1] concerns the target T1, human GLP-1 receptor (Homo sapiens, UniProt P43220).
T1 construct: host or cells: CHO cells
The test is described as follows: DiscoveRx LeadHunter cellular assay, cAMP stimulation, GLP-1 receptor in CHO cells. The note with it: human GLP-1 receptor in CHO cells (DiscoveRx); read-out: EC50 cAMP GLP-1 R. It is filed as cell-based.
Protocol: (§1) A further series of cellular assays was carried out with standard cellular assays (DiscoveRx, LeadHunter assays) using readout of cAMP stimulation or arrestin activation. Compounds were weighed precisely in an amount of about 1 mg and shipped to DiscoveRx for dilution and assay.

Test [2] deals with T2, human glucagon receptor (Homo sapiens, UniProt P47871).
T2 construct: host or cells: CHO cells
Put plainly: DiscoveRx LeadHunter cellular assay, cAMP stimulation, glucagon receptor in CHO cells. Format: cell-based.
Protocol: as §1

Numbered stars: 1 amine (or outer) side, 2 acyl side, 3 side chain; on linkers, the order of the positions; unused ones are H or OH. Bridge positions count the residues as written; N and C are the ends. Square brackets hold non-standard residues; d marks the D form. Side chains are listed from the residue outwards. Peptide text beside a SMILES is read from it. * marks the point of attachment. X1 = CCCCCCCCCCCCCCCCO[C@@H]1O[C@H](CO[C@H]2O[C@H](C(=O)*)[C@H](O)[C@H](O)[C@H]2O)[C@@H](O)[C@H](O)[C@H]1O; X2 = CCCCCCCCCCCCCCO[C@@H]1O[C@H](CO[C@H]2O[C@H](C(=O)*)[C@H](O)[C@H](O)[C@H]2O)[C@@H](O)[C@H](O)[C@H]1O; βGlcA(1-O-hexadecyl) = CCCCCCCCCCCCCCCCO[C@@H]1O[C@H](C(=O)*)[C@@H](O)[C@H](O)[C@H]1O; GlcA(1β-O-tetradecyl) = CCCCCCCCCCCCCCO[C@@H]1O[C@H](C(=O)*)[C@@H](O)[C@H](O)[C@H]1O; εLys = N[C@@H](CCCCN[*:1])C(=O)[*:2]; Aib = CC(C)(N)C(=O)O

T2 sequence (P47871 26-477): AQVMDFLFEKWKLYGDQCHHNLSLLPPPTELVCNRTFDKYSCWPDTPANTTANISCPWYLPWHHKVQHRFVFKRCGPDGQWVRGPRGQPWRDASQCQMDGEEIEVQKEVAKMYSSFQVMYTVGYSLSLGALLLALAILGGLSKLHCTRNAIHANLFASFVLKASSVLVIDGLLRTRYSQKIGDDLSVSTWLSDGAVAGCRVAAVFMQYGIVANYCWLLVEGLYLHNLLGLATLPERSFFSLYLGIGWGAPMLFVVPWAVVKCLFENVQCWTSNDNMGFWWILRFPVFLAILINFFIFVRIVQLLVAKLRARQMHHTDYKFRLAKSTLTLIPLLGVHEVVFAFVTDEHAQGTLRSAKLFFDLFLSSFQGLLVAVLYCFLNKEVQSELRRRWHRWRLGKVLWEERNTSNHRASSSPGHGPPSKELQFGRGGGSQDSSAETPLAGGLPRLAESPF
T1 sequence (P43220 24-463): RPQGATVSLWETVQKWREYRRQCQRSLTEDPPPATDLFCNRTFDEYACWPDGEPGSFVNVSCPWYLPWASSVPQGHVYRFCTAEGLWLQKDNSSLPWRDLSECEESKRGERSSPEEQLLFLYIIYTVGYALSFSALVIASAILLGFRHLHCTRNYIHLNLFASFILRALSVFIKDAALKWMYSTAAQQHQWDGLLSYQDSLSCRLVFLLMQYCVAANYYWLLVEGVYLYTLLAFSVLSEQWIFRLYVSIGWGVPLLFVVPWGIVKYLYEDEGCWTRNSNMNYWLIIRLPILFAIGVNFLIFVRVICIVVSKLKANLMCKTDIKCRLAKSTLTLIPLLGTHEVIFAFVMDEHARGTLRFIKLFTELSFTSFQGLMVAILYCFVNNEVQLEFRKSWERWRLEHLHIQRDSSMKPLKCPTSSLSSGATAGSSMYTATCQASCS

`CCCCCCCCCCCCCCO[C@@H]1O[C@H](CO[C@H]2O[C@H](C(=O)NCCCC[C@H](NC(=O)[C@H](C)NC(=O)[C@H](C)NC(=O)[C@H](CCC(N)=O)NC(=O)[C@H](CO)NC(=O)[C@H](CC(=O)O)NC(=O)[C@@H]3CCCCNC(=O)CC[C@H](NC(=O)[C@H](CC(=O)O)NC(=O)[C@H](CO)NC(=O)[C@@H](NC(=O)[C@H](Cc4ccccc4)NC(=O)[C@@H](NC(=O)CNC(=O)[C@H](CCC(N)=O)NC(=O)C(C)(C)NC(=O)[C@@H](N)Cc4c[nH]cn4)[C@@H](C)O)[C@@H](C)O)C(=O)N[C@@H](CO)C(=O)N[C@@H](CCCCN)C(=O)N[C@@H](Cc4ccc(O)cc4)C(=O)N3)C(=O)N[C@@H](CCC(=O)O)C(=O)N[C@@H](Cc3ccccc3)C(=O)N[C@H](C(=O)N[C@@H](CCC(N)=O)C(=O)N[C@@H](Cc3c[nH]c4ccccc34)C(=O)N[C@@H](CC(C)C)C(=O)N[C@@H](CC(C)C)C(=O)N[C@@H](CCC(N)=O)C(=O)N[C@H](C(N)=O)[C@@H](C)O)[C@@H](C)CC)[C@H](O)[C@H](O)[C@H]2O)[C@@H](O)[C@H](O)[C@H]1O` [EU-A1729] (H-H[Aib]QGTFTSDESKYKDSQAAK(X2)EFIQWLLQT-NH2; lactam 10-14): the EC50 (as a rule, the concentration that produces a half-maximal response) in test [1] was determined as 0.006 nM; in test [2] it was 0.558 nM.

Turning to `CCCCCCCCCCCCCCCCO[C@@H]1O[C@H](CO[C@H]2O[C@H](C(=O)NCCCC[C@H](NC(=O)[C@H](C)NC(=O)[C@H](C)NC(=O)[C@H](CCC(N)=O)NC(=O)[C@H](CO)NC(=O)[C@H](CC(=O)O)NC(=O)[C@@H]3CCCCNC(=O)CC[C@H](NC(=O)[C@H](CC(=O)O)NC(=O)[C@H](CO)NC(=O)[C@@H](NC(=O)[C@H](Cc4ccccc4)NC(=O)[C@@H](NC(=O)CNC(=O)[C@H](CCC(N)=O)NC(=O)C(C)(C)NC(=O)[C@@H](N)Cc4c[nH]cn4)[C@@H](C)O)[C@@H](C)O)C(=O)N[C@@H](CO)C(=O)N[C@@H](CCCCN)C(=O)N[C@@H](Cc4ccc(O)cc4)C(=O)N3)C(=O)N[C@@H](CCC(=O)O)C(=O)N[C@@H](Cc3ccccc3)C(=O)N[C@H](C(=O)N[C@@H](CCC(N)=O)C(=O)N[C@@H](Cc3c[nH]c4ccccc34)C(=O)N[C@@H](CC(C)C)C(=O)N[C@@H](CC(C)C)C(=O)N[C@@H](CCC(N)=O)C(=O)N[C@H](C(N)=O)[C@@H](C)O)[C@@H](C)CC)[C@H](O)[C@H](O)[C@H]2O)[C@@H](O)[C@H](O)[C@H]1O` [EU-A1730] (H-H[Aib]QGTFTSDESKYKDSQAAK(X1)EFIQWLLQT-NH2; lactam 10-14; N-terminus assumed), the EC50 worked out at 0.008 nM in test [1] and 1.17 nM in test [2].

Consider `CCCCCCCCCCCCCCO[C@@H]1O[C@H](C(=O)NCCCC[C@H](NC(=O)[C@H](C)NC(=O)[C@H](C)NC(=O)[C@H](CCC(N)=O)NC(=O)[C@H](CO)NC(=O)[C@H](CC(=O)O)NC(=O)[C@@H]2CCCCNC(=O)CC[C@H](NC(=O)[C@H](CC(=O)O)NC(=O)[C@H](CO)NC(=O)[C@@H](NC(=O)[C@H](Cc3ccccc3)NC(=O)[C@@H](NC(=O)CNC(=O)[C@H](CCC(N)=O)NC(=O)C(C)(C)NC(=O)[C@@H](N)Cc3c[nH]cn3)[C@@H](C)O)[C@@H](C)O)C(=O)N[C@@H](CO)C(=O)N[C@@H](CCCCN)C(=O)N[C@@H](Cc3ccc(O)cc3)C(=O)N2)C(=O)N[C@@H](CCC(=O)O)C(=O)N[C@@H](Cc2ccccc2)C(=O)N[C@H](C(=O)N[C@@H](CCC(N)=O)C(=O)N[C@@H](Cc2c[nH]c3ccccc23)C(=O)N[C@@H](CC(C)C)C(=O)N[C@@H](CC(C)C)C(=O)N[C@@H](CCC(N)=O)C(=O)N[C@H](C(N)=O)[C@@H](C)O)[C@@H](C)CC)[C@@H](O)[C@H](O)[C@H]1O` [EU-A1734] (H-H[Aib]QGTFTSDESKYKDSQAAK(GlcA(1β-O-tetradecyl))EFIQWLLQT-NH2; lactam 10-14; N-terminus assumed), for which the EC50 came to 0.006 nM in test [1] and 0.387 nM in test [2].

As to `CCCCCCCCCCCCCCCCO[C@@H]1O[C@H](C(=O)NCCCC[C@H](NC(=O)[C@H](C)NC(=O)[C@H](C)NC(=O)[C@H](CCC(N)=O)NC(=O)[C@H](CO)NC(=O)[C@H](CC(=O)O)NC(=O)[C@@H]2CCCCNC(=O)CC[C@H](NC(=O)[C@H](CC(=O)O)NC(=O)[C@H](CO)NC(=O)[C@@H](NC(=O)[C@H](Cc3ccccc3)NC(=O)[C@@H](NC(=O)CNC(=O)[C@H](CCC(N)=O)NC(=O)C(C)(C)NC(=O)[C@@H](N)Cc3c[nH]cn3)[C@@H](C)O)[C@@H](C)O)C(=O)N[C@@H](CO)C(=O)N[C@@H](CCCCN)C(=O)N[C@@H](Cc3ccc(O)cc3)C(=O)N2)C(=O)N[C@@H](CCC(=O)O)C(=O)N[C@@H](Cc2ccccc2)C(=O)N[C@H](C(=O)N[C@@H](CCC(N)=O)C(=O)N[C@@H](Cc2c[nH]c3ccccc23)C(=O)N[C@@H](CC(C)C)C(=O)N[C@@H](CC(C)C)C(=O)N[C@@H](CCC(N)=O)C(=O)N[C@H](C(N)=O)[C@@H](C)O)[C@@H](C)CC)[C@@H](O)[C@H](O)[C@H]1O` [EU-A1735] (H-H[Aib]QGTFTSDESKYKDSQAAK(βGlcA(1-O-hexadecyl))EFIQWLLQT-NH2; lactam 10-14; N-terminus assumed), the values for the half-maximal effective concentration (EC50) in test [1] and in test [2] were 0.008 nM and 0.931 nM, respectively.

Turning to `CCCCCCCCCCCCCCO[C@@H]1O[C@H](CO[C@H]2O[C@H](C(=O)NCCCC[C@H](NC(=O)[C@H](C)NC(=O)[C@H](C)NC(=O)[C@H](CCC(N)=O)NC(=O)[C@@H]3CCCCNC(=O)CC[C@H](NC(=O)[C@H](CO)NC(=O)[C@H](Cc4ccc(O)cc4)NC(=O)[C@H](CC(=O)O)NC(=O)[C@H](CO)NC(=O)[C@@H](NC(=O)[C@H](Cc4ccccc4)NC(=O)[C@@H](NC(=O)CNC(=O)[C@H](CCC(N)=O)NC(=O)C(C)(C)NC(=O)[C@@H](N)Cc4c[nH]cn4)[C@@H](C)O)[C@@H](C)O)C(=O)N[C@@H](Cc4ccc(O)cc4)C(=O)N[C@@H](CC(C)C)C(=O)N[C@@H](CC(=O)O)C(=O)N3)C(=O)N[C@@H](CCC(=O)O)C(=O)N[C@@H](Cc3ccccc3)C(=O)N[C@H](C(=O)N[C@@H](CCC(N)=O)C(=O)N[C@@H](Cc3c[nH]c4ccccc34)C(=O)N[C@@H](CC(C)C)C(=O)N[C@@H](CC(C)C)C(=O)N[C@@H](CCC(N)=O)C(=O)N[C@H](C(N)=O)[C@@H](C)O)[C@@H](C)CC)[C@H](O)[C@H](O)[C@H]2O)[C@@H](O)[C@H](O)[C@H]1O` [EU-A1739] (H-H[Aib]QGTFTSDYSEYLDKQAAK(X2)EFIQWLLQT-NH2; lactam 12-16; N-terminus assumed), the EC50 in test [1] was found to be 0.056 nM; in test [2], 2.22 nM.

`CCCCCCCCCCCCCCCCO[C@@H]1O[C@H](CO[C@H]2O[C@H](C(=O)NCCCC[C@H](NC(=O)[C@H](C)NC(=O)[C@H](C)NC(=O)[C@H](CCC(N)=O)NC(=O)[C@@H]3CCCCNC(=O)CC[C@H](NC(=O)[C@H](CO)NC(=O)[C@H](Cc4ccc(O)cc4)NC(=O)[C@H](CC(=O)O)NC(=O)[C@H](CO)NC(=O)[C@@H](NC(=O)[C@H](Cc4ccccc4)NC(=O)[C@@H](NC(=O)CNC(=O)[C@H](CCC(N)=O)NC(=O)C(C)(C)NC(=O)[C@@H](N)Cc4c[nH]cn4)[C@@H](C)O)[C@@H](C)O)C(=O)N[C@@H](Cc4ccc(O)cc4)C(=O)N[C@@H](CC(C)C)C(=O)N[C@@H](CC(=O)O)C(=O)N3)C(=O)N[C@@H](CCC(=O)O)C(=O)N[C@@H](Cc3ccccc3)C(=O)N[C@H](C(=O)N[C@@H](CCC(N)=O)C(=O)N[C@@H](Cc3c[nH]c4ccccc34)C(=O)N[C@@H](CC(C)C)C(=O)N[C@@H](CC(C)C)C(=O)N[C@@H](CCC(N)=O)C(=O)N[C@H](C(N)=O)[C@@H](C)O)[C@@H](C)CC)[C@H](O)[C@H](O)[C@H]2O)[C@@H](O)[C@H](O)[C@H]1O` [EU-A1740] (H-H[Aib]QGTFTSDYSEYLDKQAAK(X1)EFIQWLLQT-NH2; lactam 12-16; N-terminus assumed): the EC50 in test [1] amounted to 0.077 nM; in test [2], 3.82 nM.

`CCCCCCCCCCCCCCCCO[C@@H]1O[C@H](C(=O)NCCCC[C@H](NC(=O)[C@H](C)NC(=O)[C@H](C)NC(=O)[C@H](CCC(N)=O)NC(=O)[C@@H]2CCCCNC(=O)CC[C@H](NC(=O)[C@H](CO)NC(=O)[C@H](Cc3ccc(O)cc3)NC(=O)[C@H](CC(=O)O)NC(=O)[C@H](CO)NC(=O)[C@@H](NC(=O)[C@H](Cc3ccccc3)NC(=O)[C@@H](NC(=O)CNC(=O)[C@H](CCC(N)=O)NC(=O)C(C)(C)NC(=O)[C@@H](N)Cc3c[nH]cn3)[C@@H](C)O)[C@@H](C)O)C(=O)N[C@@H](Cc3ccc(O)cc3)C(=O)N[C@@H](CC(C)C)C(=O)N[C@@H](CC(=O)O)C(=O)N2)C(=O)N[C@@H](CCC(=O)O)C(=O)N[C@@H](Cc2ccccc2)C(=O)N[C@H](C(=O)N[C@@H](CCC(N)=O)C(=O)N[C@@H](Cc2c[nH]c3ccccc23)C(=O)N[C@@H](CC(C)C)C(=O)N[C@@H](CC(C)C)C(=O)N[C@@H](CCC(N)=O)C(=O)N[C@H](C(N)=O)[C@@H](C)O)[C@@H](C)CC)[C@@H](O)[C@H](O)[C@H]1O` [EU-A1745] (H-H[Aib]QGTFTSDYSEYLDKQAAK(βGlcA(1-O-hexadecyl))EFIQWLLQT-NH2; lactam 12-16; N-terminus assumed): the EC50 in test [1] was 1.02 nM; in test [2] it was 10 nM.

Take `CCCCCCCCCCCCCCO[C@@H]1O[C@H](C(=O)NCCCC[C@H](N)C(=O)NCCCC[C@H](NC(=O)[C@H](C)NC(=O)[C@H](C)NC(=O)[C@H](CCC(N)=O)NC(=O)[C@@H]2CCCCNC(=O)CC[C@H](NC(=O)[C@H](CO)NC(=O)[C@H](Cc3ccc(O)cc3)NC(=O)[C@H](CC(=O)O)NC(=O)[C@H](CO)NC(=O)[C@@H](NC(=O)[C@H](Cc3ccccc3)NC(=O)[C@@H](NC(=O)CNC(=O)[C@H](CCC(N)=O)NC(=O)C(C)(C)NC(=O)[C@@H](N)Cc3c[nH]cn3)[C@@H](C)O)[C@@H](C)O)C(=O)N[C@@H](Cc3ccc(O)cc3)C(=O)N[C@@H](CC(C)C)C(=O)N[C@@H](CC(=O)O)C(=O)N2)C(=O)N[C@@H](CCC(=O)O)C(=O)N[C@@H](Cc2ccccc2)C(=O)N[C@H](C(=O)N[C@@H](CCC(N)=O)C(=O)N[C@@H](Cc2c[nH]c3ccccc23)C(=O)N[C@@H](CC(C)C)C(=O)N[C@@H](CC(C)C)C(=O)N[C@@H](CCC(N)=O)C(=O)N[C@H](C(N)=O)[C@@H](C)O)[C@@H](C)CC)[C@@H](O)[C@H](O)[C@H]1O` [EU-A1784] (H-H[Aib]QGTFTSDYSEYLDKQAAK([εLys-GlcA(1β-O-tetradecyl)])EFIQWLLQT-NH2; lactam 12-16; N-terminus assumed): the EC50 in test [1] came out at 0.048 nM; in test [2], 1.91 nM.

Values taken from patent publication US11541028B2, “Peptide pharmaceuticals for treatment of NASH and other disorders” (Mederis Diabetes LLC, priority 2018, dated 2023).
